Usually GI50 stands for the concentration giving 50% growth inhibition. A word on the inhibition: it is the drop in the measured response relative to a control, in per cent.

FGFR1(h), sequence (P11362 22-822): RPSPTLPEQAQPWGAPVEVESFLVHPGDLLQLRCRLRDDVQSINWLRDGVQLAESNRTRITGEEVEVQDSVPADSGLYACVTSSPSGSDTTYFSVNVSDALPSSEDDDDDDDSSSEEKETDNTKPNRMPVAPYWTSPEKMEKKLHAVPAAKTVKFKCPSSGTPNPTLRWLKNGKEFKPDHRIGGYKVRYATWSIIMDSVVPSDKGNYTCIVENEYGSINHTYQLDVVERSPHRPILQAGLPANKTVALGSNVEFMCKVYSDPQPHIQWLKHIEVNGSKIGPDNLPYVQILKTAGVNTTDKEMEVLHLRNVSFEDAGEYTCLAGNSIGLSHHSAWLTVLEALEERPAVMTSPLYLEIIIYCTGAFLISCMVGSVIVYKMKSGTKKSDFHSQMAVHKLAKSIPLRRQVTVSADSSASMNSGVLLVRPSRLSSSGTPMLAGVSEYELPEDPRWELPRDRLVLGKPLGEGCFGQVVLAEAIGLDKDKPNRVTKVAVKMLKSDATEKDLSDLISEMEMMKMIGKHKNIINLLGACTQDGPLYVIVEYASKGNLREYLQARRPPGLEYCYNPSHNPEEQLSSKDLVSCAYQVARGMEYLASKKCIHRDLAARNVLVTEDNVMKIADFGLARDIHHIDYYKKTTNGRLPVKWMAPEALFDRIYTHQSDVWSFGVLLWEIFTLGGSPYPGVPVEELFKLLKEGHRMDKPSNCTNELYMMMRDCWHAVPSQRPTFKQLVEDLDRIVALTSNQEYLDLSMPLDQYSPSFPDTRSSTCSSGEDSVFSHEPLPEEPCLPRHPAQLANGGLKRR

The first experiment deals with Kato III. Put plainly: Inhibition of proliferation (CellTiterblue, 72 hr), Kato III. Conditions: Homo sapiens, KATO III, 72 h. The format is cell-based. The procedure: (§1) A number of studies were performed to analyze the consequences of tyrosine kinase inhibition in cell lines. To do this, 1000 cells are seeded in 27 μl/well in 384-well microplates, which are then placed in a humidified CO2 incubator at 37° C. overnight. The next day, 3 μl/well of 10× concentrated drug is added and the plates are returned to the incubator for 72 hr. After 72 hr incubation, plates are removed and 6 μl/well CellTiterblue (Promega) viability reagent is added. Plates are returned to the incubator for 3 hrs, after which fluorescence measurements are read on the Victor X3 plate reader (Perkin Elmer). Data are analyzed using Excel (Microsoft), and GI50 values are determined using Prism (Graphpad).
On the technique in general: Alamar Blue is a resazurin reagent that responds to reducing activity.
Compound `Cc1cc2c(F)c(Oc3ncnc(Nc4ccc(N5[C@H](C)CNC[C@@H]5C)cc4)c3C#N)cc(F)c2[nH]1` [Compound 49] registered a GI50 of 86 nM.
Still for that read-out and setting: under `Cc1cc2c(F)c(Oc3ncnc(Nc4ccc(N5CCN6CCCC6C5)cc4)c3C#N)cc(F)c2[nH]1` (stereo not shown) [Compound 50] stands 174 nM.
As for `Cc1cc2c(F)c(Oc3ncnc(Nc4ccc(N5CCN6CCCCC6C5)cc4)c3C#N)cc(F)c2[nH]1` (stereo not shown) [Compound 51], halving of growth (GI50) required 208 nM. This GI50 and that of the compound before are within 1.5-fold of each other.
For `C=CC(=O)Nc1cccc(Nc2ncnc(Oc3cc(F)c4[nH]c(C)cc4c3F)c2C#N)c1` [Compound 53], the GI50 was 152 nM.
Turning to `C=CC(=O)Nc1ccc(Nc2ncnc(Oc3cc(F)c4[nH]c(C)cc4c3F)c2C#N)cc1` [Compound 56], the GI50 was determined as 106 nM. The GI50 values of the last two compounds are within 1.5-fold of each other.

A further experiment has as its target FGFR1(h) (Homo sapiens, UniProt P11362). Put plainly: Kinase assay, FGFR1(h). The format is biochemical. Conditions: 1 μM. The procedure: (§2) Kinase assay protocols well known to those of ordinary skill in the art were used. Specifically, the buffer composition was as follows: 20 mM MOPS, 1 mM EDTA, 0.01% Brij-35, 5% Glycerol, 0.1% β-mercaptoethanol, 1 mg/mL BSA. Test compounds were initially dissolved in DMSO at the desired concentration, then serially diluted to the kinase assay buffer. In a final reaction volume of 25 μL FGFR1(h) (5-10 mU) and KDR(h) (5-10 mU) are incubated with 8 mM MOPS pH 7.0, 0.2 mM EDTA, 200 μM LRRASLG (Kemptide), 10 mM magnesium acetate and [γ^33P-ATP]. The reaction was initiated by the addition of the MgATP mix. After incubation for 40 minutes at room temperature, the reaction was stopped by addition of 5 μL of a 3% phosphoric acid solution. Ten L of the reaction was then spotted onto a P30 filter mat and washed three times for 5 minutes in 50 mM phosphoric acid and once in methanol prior to drying and scintillation counting. Wells containing substrate but no kinase and wells containing a phosphopeptide control were used to set 0% and 100% phosphorylation value, respectively.
(§3) Of all of the steps in developing a drug, the hardest is finding promising compounds. (See, e.g., Malo et al., “Statistical practice in high-throughput screening data analysis,” Nature Biotechnology, 2006, 24, 167-75.) Kinase inhibitors often also have an anti-proliferative effect. […] The kinase inhibitory activity Compound 19 was tested using the kinase assay described in Example 3. […] These mutations in the tested kinases are thought to play an important role in transformation of some cancers.
In the case of `Cc1cc2c(F)c(Oc3ncnc(Nc4ccc(N5[C@H](C)CNC[C@@H]5C)cc4)c3C#N)cc(F)c2[nH]1` [Compound 49], the inhibition at 1 µM came to 101%.
The same measure, in the same setting: under `Cc1cc2c(F)c(Oc3ncnc(Nc4ccc(N5CCN6CCCC6C5)cc4)c3C#N)cc(F)c2[nH]1` (stereo not shown) [Compound 50] stands 101%; under `Cc1cc2c(F)c(Oc3ncnc(Nc4ccc(N5CCN6CCCCC6C5)cc4)c3C#N)cc(F)c2[nH]1` (stereo not shown) [Compound 51], 101%.
For `C=CC(=O)Nc1cccc(Nc2ncnc(Oc3cc(F)c4[nH]c(C)cc4c3F)c2C#N)c1` [Compound 53], the inhibition at 1 µM was 100%.
The same measure, in the same setting: as for `C=CC(=O)Nc1ccc(Nc2ncnc(Oc3cc(F)c4[nH]c(C)cc4c3F)c2C#N)cc1` [Compound 56], the figure is 101%.

The target in the next experiment is KDR(h) (Homo sapiens, UniProt P35968). Put plainly: Kinase assay, KDR(h).
KDR(h), sequence (P35968 20-1356): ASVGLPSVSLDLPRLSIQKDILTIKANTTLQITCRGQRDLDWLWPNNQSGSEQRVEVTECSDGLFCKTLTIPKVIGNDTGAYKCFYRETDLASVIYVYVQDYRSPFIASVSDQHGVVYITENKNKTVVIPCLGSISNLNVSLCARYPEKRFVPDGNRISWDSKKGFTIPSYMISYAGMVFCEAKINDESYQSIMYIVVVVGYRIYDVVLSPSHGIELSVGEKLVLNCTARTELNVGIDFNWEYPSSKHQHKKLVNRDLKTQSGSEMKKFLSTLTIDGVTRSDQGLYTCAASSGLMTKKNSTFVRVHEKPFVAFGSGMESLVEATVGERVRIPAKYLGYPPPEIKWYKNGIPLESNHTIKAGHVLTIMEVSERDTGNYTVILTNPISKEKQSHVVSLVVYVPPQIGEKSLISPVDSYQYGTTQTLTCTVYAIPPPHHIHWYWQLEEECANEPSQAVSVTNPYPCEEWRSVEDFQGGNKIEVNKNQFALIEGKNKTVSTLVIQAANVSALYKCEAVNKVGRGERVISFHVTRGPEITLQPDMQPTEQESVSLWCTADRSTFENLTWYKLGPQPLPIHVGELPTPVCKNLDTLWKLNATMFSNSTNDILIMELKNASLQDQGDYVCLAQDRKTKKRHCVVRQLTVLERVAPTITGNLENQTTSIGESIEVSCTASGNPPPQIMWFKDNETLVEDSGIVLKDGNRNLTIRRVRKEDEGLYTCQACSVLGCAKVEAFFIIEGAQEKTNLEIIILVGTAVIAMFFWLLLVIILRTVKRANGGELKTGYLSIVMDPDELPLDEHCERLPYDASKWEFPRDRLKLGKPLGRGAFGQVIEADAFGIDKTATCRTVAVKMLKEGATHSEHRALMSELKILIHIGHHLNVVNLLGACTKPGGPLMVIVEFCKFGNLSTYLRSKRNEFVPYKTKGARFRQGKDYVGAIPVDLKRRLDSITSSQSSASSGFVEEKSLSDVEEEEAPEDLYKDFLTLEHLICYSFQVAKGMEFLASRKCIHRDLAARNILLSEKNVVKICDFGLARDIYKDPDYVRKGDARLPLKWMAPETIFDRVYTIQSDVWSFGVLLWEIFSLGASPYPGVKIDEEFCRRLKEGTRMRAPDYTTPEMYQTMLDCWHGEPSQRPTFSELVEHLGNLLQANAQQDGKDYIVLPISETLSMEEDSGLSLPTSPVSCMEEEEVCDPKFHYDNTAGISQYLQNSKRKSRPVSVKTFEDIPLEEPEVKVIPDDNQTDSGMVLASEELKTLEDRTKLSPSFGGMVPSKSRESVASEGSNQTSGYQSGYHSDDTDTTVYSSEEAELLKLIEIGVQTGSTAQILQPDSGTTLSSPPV
Conditions: not given
Type of experiment: biochemical. The protocol: as §2, §3
As to `Cc1cc2c(F)c(Oc3ncnc(Nc4ccc(N5[C@H](C)CNC[C@@H]5C)cc4)c3C#N)cc(F)c2[nH]1` [Compound 49], the inhibition at 1 µM was determined as 82%.
Turning to `Cc1cc2c(F)c(Oc3ncnc(Nc4ccc(N5CCN6CCCC6C5)cc4)c3C#N)cc(F)c2[nH]1` (stereo not shown) [Compound 50], the inhibition at 1 µM was determined as 88%.
For `Cc1cc2c(F)c(Oc3ncnc(Nc4ccc(N5CCN6CCCCC6C5)cc4)c3C#N)cc(F)c2[nH]1` (stereo not shown) [Compound 51], the inhibition at 1 µM turned out to be 80%.
Same read-out and setting: as for `C=CC(=O)Nc1cccc(Nc2ncnc(Oc3cc(F)c4[nH]c(C)cc4c3F)c2C#N)c1` [Compound 53], the figure is 93%.
On to `C=CC(=O)Nc1ccc(Nc2ncnc(Oc3cc(F)c4[nH]c(C)cc4c3F)c2C#N)cc1` [Compound 56], for which the inhibition at 1 µM turned out to be 94%.

For another experiment, the system named is RT112. Put plainly: Inhibition of proliferation (CellTiterblue, 72 hr), RT112. Type of experiment: cell-based. Particulars: Homo sapiens, RT-112, 72 h. The protocol: as §1
With `Cc1cc2c(F)c(Oc3ncnc(Nc4ccc(N5[C@H](C)CNC[C@@H]5C)cc4)c3C#N)cc(F)c2[nH]1` [Compound 49], the GI50 amounted to 48 nM.
On the same count and under the same terms, as for `Cc1cc2c(F)c(Oc3ncnc(Nc4ccc(N5CCN6CCCC6C5)cc4)c3C#N)cc(F)c2[nH]1` (stereo not shown) [Compound 50], the figure is 49 nM; as for `Cc1cc2c(F)c(Oc3ncnc(Nc4ccc(N5CCN6CCCCC6C5)cc4)c3C#N)cc(F)c2[nH]1` (stereo not shown) [Compound 51], 73 nM.
Still for that read-out and setting: as for `C=CC(=O)Nc1cccc(Nc2ncnc(Oc3cc(F)c4[nH]c(C)cc4c3F)c2C#N)c1` [Compound 53], the figure is 94 nM; as for `C=CC(=O)Nc1ccc(Nc2ncnc(Oc3cc(F)c4[nH]c(C)cc4c3F)c2C#N)cc1` [Compound 56], 134 nM.

A further experiment has as its system SNU16. Put plainly: Inhibition of proliferation (CellTiterblue, 72 hr), SNU16. The format is cell-based. Conditions: Homo sapiens, SNU-16, 72 h. The protocol: as §1
As to `Cc1cc2c(F)c(Oc3ncnc(Nc4ccc(N5[C@H](C)CNC[C@@H]5C)cc4)c3C#N)cc(F)c2[nH]1` [Compound 49], the GI50 was 24 nM.
Same read-out and setting: as for `Cc1cc2c(F)c(Oc3ncnc(Nc4ccc(N5CCN6CCCC6C5)cc4)c3C#N)cc(F)c2[nH]1` (stereo not shown) [Compound 50], the figure is 52 nM; as for `Cc1cc2c(F)c(Oc3ncnc(Nc4ccc(N5CCN6CCCCC6C5)cc4)c3C#N)cc(F)c2[nH]1` (stereo not shown) [Compound 51], 66 nM.
The same measure, in the same setting: as for `C=CC(=O)Nc1cccc(Nc2ncnc(Oc3cc(F)c4[nH]c(C)cc4c3F)c2C#N)c1` [Compound 53], the figure is 28 nM; as for `C=CC(=O)Nc1ccc(Nc2ncnc(Oc3cc(F)c4[nH]c(C)cc4c3F)c2C#N)cc1` [Compound 56], 24 nM.
The same measure, in the same setting: as for `CCC(=O)Nc1ccc(Nc2ncnc(Oc3cc(F)c4[nH]c(C)cc4c3F)c2C#N)cc1` [Compound 57], the figure is 6 nM.
On to `Cc1cc2c(F)c(Oc3ncnc(Nc4ccc(NC(=O)CN5CCOCC5)cc4)c3C#N)cc(F)c2[nH]1` [Compound 58], for which the GI50 is 122 nM.
`Cc1cc2c(F)c(Oc3ncnc(Nc4ccc(NC(=O)CN5CCN(C)CC5)cc4)c3C#N)cc(F)c2[nH]1` [Compound 59] had a GI50 of 79 nM.
On the same count and under the same terms, as for `C/C=C/C(=O)Nc1ccc(Nc2ncnc(Oc3cc(F)c4[nH]c(C)cc4c3F)c2C#N)cc1` [Compound 60], the figure is 92 nM; as for `Cc1cc2c(F)c(Oc3ncnc(Nc4ccc(N5C[C@@H](C)N[C@@H](C)C5)nc4)c3C#N)cc(F)c2[nH]1` [Compound 61], 75 nM.

Another experiment concerns KG1a. Put plainly: Inhibition of proliferation (CellTiterblue, 72 hr), KG1a. Conditions: Homo sapiens, KG-1a; 72 hr. Type of experiment: cell-based, human. The procedure:
as §1
Consider `Cc1cc2c(F)c(Oc3ncnc(Nc4ccc(N5[C@H](C)CNC[C@@H]5C)cc4)c3C#N)cc(F)c2[nH]1` [Compound 49], for which the GI50 turned out to be 0.6 nM.
In the case of `Cc1cc2c(F)c(Oc3ncnc(Nc4ccc(N5CCN6CCCC6C5)cc4)c3C#N)cc(F)c2[nH]1` (stereo not shown) [Compound 50], the GI50 was 2.91 nM.
The compound `Cc1cc2c(F)c(Oc3ncnc(Nc4ccc(N5CCN6CCCCC6C5)cc4)c3C#N)cc(F)c2[nH]1` (stereo not shown) [Compound 51] gave a GI50 of 1.62 nM.
Regarding `C=CC(=O)Nc1cccc(Nc2ncnc(Oc3cc(F)c4[nH]c(C)cc4c3F)c2C#N)c1` [Compound 53], the GI50 was determined as 3.59 nM. Compared with the last compound, the GI50 is about 2.2-fold higher.
On the same count and under the same terms, as for `C=CC(=O)Nc1ccc(Nc2ncnc(Oc3cc(F)c4[nH]c(C)cc4c3F)c2C#N)cc1` [Compound 56], the figure is 5.59 nM; as for `CCC(=O)Nc1ccc(Nc2ncnc(Oc3cc(F)c4[nH]c(C)cc4c3F)c2C#N)cc1` [Compound 57], 15 nM.
`Cc1cc2c(F)c(Oc3ncnc(Nc4ccc(NC(=O)CN5CCOCC5)cc4)c3C#N)cc(F)c2[nH]1` [Compound 58] displayed a GI50 of 101 nM.
`Cc1cc2c(F)c(Oc3ncnc(Nc4ccc(NC(=O)CN5CCN(C)CC5)cc4)c3C#N)cc(F)c2[nH]1` [Compound 59]: the GI50 came to 31 nM.
On to `C/C=C/C(=O)Nc1ccc(Nc2ncnc(Oc3cc(F)c4[nH]c(C)cc4c3F)c2C#N)cc1` [Compound 60], for which the concentration for 50% growth inhibition (GI50) turned out to be 101 nM. This GI50 lies about 3.3-fold higher than the previous one.
Still for that read-out and setting: under `Cc1cc2c(F)c(Oc3ncnc(Nc4ccc(N5C[C@@H](C)N[C@@H](C)C5)nc4)c3C#N)cc(F)c2[nH]1` [Compound 61] stands 4 nM.

For the origin of these results see patent publication US20180215734A1, “PYRIMIDINE DERIVATIVES AS KINASE INHIBITORS AND THEIR THERAPEUTICAL APPLICATIONS” (NantBioScience, Inc., priority 2016, published 2018).
